According to patent US20230009608A1, “GRK2 INHIBITORS AND USES THEREOF” (Cygnal Therapeutics, Inc., priority 2020, published 2023):
Read-outs that look alike come from different tables or passages of the source.

Legend:
[1] = target: T1, GRK2 (Homo sapiens, UniProt P25098); experiment: ADPGlo GRK2 Inhibition Assay (Example 8); type: biochemical; conditions: read-out: A: Enzymatic GRK2: IC50 (nM) (Example 8)
T1 construct: purchased SignalChem A14-10G
T1 sequence (P25098 1-689): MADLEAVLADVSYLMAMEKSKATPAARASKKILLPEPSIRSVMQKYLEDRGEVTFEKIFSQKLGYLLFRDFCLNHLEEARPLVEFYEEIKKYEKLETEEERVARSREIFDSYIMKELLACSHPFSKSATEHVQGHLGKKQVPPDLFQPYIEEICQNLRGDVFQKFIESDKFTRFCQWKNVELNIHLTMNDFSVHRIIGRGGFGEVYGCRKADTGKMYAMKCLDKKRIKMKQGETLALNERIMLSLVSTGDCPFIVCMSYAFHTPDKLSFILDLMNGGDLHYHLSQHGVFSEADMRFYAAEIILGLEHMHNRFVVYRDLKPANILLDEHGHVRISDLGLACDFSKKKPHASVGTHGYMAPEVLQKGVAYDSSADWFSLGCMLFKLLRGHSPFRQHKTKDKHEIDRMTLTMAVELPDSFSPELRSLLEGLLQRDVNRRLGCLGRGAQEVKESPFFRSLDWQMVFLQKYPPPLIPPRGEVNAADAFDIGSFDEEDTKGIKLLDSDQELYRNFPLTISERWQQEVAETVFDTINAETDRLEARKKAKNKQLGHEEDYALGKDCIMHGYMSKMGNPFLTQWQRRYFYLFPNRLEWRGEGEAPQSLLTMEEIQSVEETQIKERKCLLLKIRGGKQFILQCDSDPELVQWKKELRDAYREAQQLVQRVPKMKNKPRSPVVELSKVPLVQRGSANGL
Outline: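 GRK2 (15 nM 2× enzyme solution) was preincubated 15 min with compound, then reacted 180 min at room temperature with 2× mix of 20 μM ATP plus GRKtide in HEPES pH 7.5, MgCl2, Tween-20, DTT. ADP was detected by ADP-Glo luminescence. Percent inhibition was normalised to enzyme and no-enzyme controls, with dose-response curves from threefold dilutions starting at 100 μM.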

[2] = tested on: PAXF1657 control empty vector cell line; experiment: 7-day proliferation assay, PAXF1657 control empty vector cell line (Example 9); type: cell-based; conditions: 168 h; Cell Line: PAXF1657 empty vector (EV) cell line; 7-day; read-out: C: 7-day proliferation assay: IC50 GeoMean
Outline: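 PAXF1657 pancreatic cancer cells (GRK2-overexpressing vs empty vector; CRISPR GRK2 knockout vs non-targeting control) were seeded at 500 cells/well in RPMI1640/10% FBS, then given a 10-point series, 30 μM-0.0002 μM in 0.3% DMSO. Medium and compound were refreshed after 3 days; CellTiter-Glo luminescence was read at day 7.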

[3] = Enzyme Assay A, ADPGlo (Example 8)

| IC50 ([1]; ADPGlo GRK2 enzyme assay) [nM] | IC50 [1, 3] [nM] | Structure (SMILES) | IC50 [2] [nM] |
| --- | --- | --- | --- |
|  | 22.2 | CCCn1c(CNc2cccc(C(=O)NCc3c(F)cccc3S(=O)(=O)NC)c2)nnc1-c1ccncn1 | > 3200 |
| 65.8 |  | CC(C)NS(=O)(=O)c1ccccc1CNC(=O)c1cccc(NCc2nnc(-c3ccncn3)n2C)c1 | > 15900 |
| 63.5 |  | CN1Cc2ccccc2C(NC(=O)c2cccc(NCc3nnc(-c4ccncn4)n3C)c2)C1=O (centres unmarked) | > 1900 |
| 13.8 |  | Cn1c(CNc2cccc(C(=O)NCc3ccncc3Br)c2)nnc1-c1ccncn1 | 633 |
|  | 14 | Cc1ccn2c(CNC(=O)c3cccc(NCc4nnc(-c5ccncn5)n4C)c3)nnc2c1 | > 30000 |
| 57.1 |  | Cn1c(CNc2cccc(C(=O)NCc3ccccc3S(C)(=O)=O)c2)nnc1-c1ccncn1 | 1950 |
| 26 |  | Cc1cccnc1[C@@H](C)NC(=O)c1cccc(NCc2nnc(-c3ccncn3)n2C)c1 | 3790 |
| 66 |  | Cn1c(CNc2cccc(C(=O)N[C@H]3COCc4ccccc43)c2)nnc1-c1ccncn1 | > 11800 |
| 53.3 |  | CN(C)CCNc1ccccc1CNC(=O)c1cccc(NCc2nnc(-c3ccncn3)n2C)c1 | > 30000 |
| 37.3 |  | COc1nccc(C)c1CNC(=O)c1cccc(NCc2nnc(-c3ccncn3)n2C)c1 | 930 |
| 45.9 |  | CN1Cc2ccccc2C(NC(=O)c2cccc(NCc3nnc(-c4ccncn4)n3C)c2)C1 (centres unmarked) | 7670 |
| 13.2 |  | Cn1c(CNc2cccc(C(=O)NCc3cccc4c3OCO4)c2)nnc1-c1ccncn1 | 681 |
|  | 39 | Cn1c(CNc2cccc(C(=O)NCc3cnccc3C(F)(F)F)c2)nnc1-c1ccncn1 | > 10000 |
| 26.9 |  | Cn1c(CNc2cccc(C(=O)NCc3ccccc3S(=O)(=O)N3CCCC3)c2)nnc1-c1ccncn1 | 2170 |
| 68.4 |  | Cn1c(CNc2cccc(C(=O)NC3COc4ccccc4C3)c2)nnc1-c1ccncn1 (centres unmarked) | > 12600 |
|  | 43 | Cn1c(CNc2cccc(C(=O)NCc3ccnnc3)c2)nnc1-c1ccncn1 | > 30000 |
| 47.2 |  | Cn1c(CNc2cccc(C(=O)NC3CCc4c(O)cccc43)c2)nnc1-c1ccncn1 (centres unmarked) | 8840 |
| 17.6 |  | Cn1c(CNc2cccc(C(=O)NCc3cc(C#N)ccc3F)c2)nnc1-c1ccncn1 | > 1280 |

More lines, now with the values behind:

| Structure (SMILES) | IC50 ([1]; ADPGlo GRK2 enzyme assay) [nM] | IC50 [1, 3] [nM] | IC50 [2] [nM] |
| --- | --- | --- | --- |
| COc1cccc([C@@H](C)NC(=O)c2cccc(NCc3nnc(-c4ccncc4F)n3C)c2)c1 | 181 |  | > 30000 |
| COc1cccc([C@@H](C)NC(=O)c2cccc(NCc3nnc(-c4ccncc4)n3CCO)c2)c1 | 99.4 |  | > 30000 |
| O=C(N[C@H]1COCc2c(Cl)cccc21)c1cccc(NCc2nnc(-c3ccncc3)n2CCO)c1 |  | 7.18 | > 30000 |
| Cc1ncccc1CNC(=O)c1cccc(NCc2nnc(-c3ccncc3)[nH]2)c1 |  | 19 | > 10000 |
| O=C(N[C@@H]1COCc2ccccc21)c1cccc(NCc2nnc(-c3ccncn3)n2CCO)c1 |  | 1.47 | 592 |
| Cn1c(CNc2cccc(C(=O)N[C@@H](CCO)c3ccccc3)c2)nnc1-c1ccncc1F | 28.9 |  | > 1440 |
| O=C(NCc1nccc(C(F)F)n1)c1cccc(NCc2nnc(-c3ccncc3)[nH]2)c1 |  | 27 | > 10000 |
| Cn1c(CNc2cccc(C(=O)NC3COc4cccc(F)c43)c2)nnc1-c1ccncn1 (centres unmarked) |  | 12 | > 10000 |
| Cn1c(CNc2cccc(C(=O)N[C@@H]3CCOc4c(Cl)cccc43)c2)nnc1-c1ccncc1 |  | 27.5 | > 865 |
| O=C(NCc1cnccn1)c1cccc(NCc2nnc(-c3ccncc3)[nH]2)c1 |  | 25 | > 10000 |
| CC(NC(=O)c1cccc(NCc2nnc(-c3ccncc3)[nH]2)c1)c1ccon1 (centres unmarked) |  | 20 | > 10000 |
| O=C(N[C@@H]1COCc2c(Cl)cccc21)c1cccc(NCc2nnc(-c3ccncc3)n2CCO)c1 |  | 9.91 | 24.2 |
| Cn1c(CNc2cccc(C(=O)N[C@H]3COc4cc(F)ccc43)c2)nnc1-c1ccncn1 |  | 9.03 | > 30000 |
